Measurements published in the supplement of paper PMC13207355.

Tests used:
Details in all cases: exposure time: 72 h
E13 [1] = patient-derived glioblastoma stem cells of classical subtype; test: surviving fraction (nuclei count normalised to DMSO); higher = more cells surviving (less toxic)
E21 [2] = patient-derived glioblastoma stem cells of mesenchymal subtype; test: as above
E28 [3] = patient-derived glioblastoma stem cells of classical subtype; test: as above
E34 [4] = patient-derived glioblastoma stem cells of proneural subtype; test: as above
E57 [5] = patient-derived glioblastoma stem cells of mesenchymal subtype; test: as above
FT3469 [6] = normal neural stem cell line; test: as above
E13 [7] = test: phenotypic distance (Euclidean, principal components) from DMSO controls (arbitrary units); higher = stronger morphological change
E21 [8] = test: as above
E28 [9] = test: as above
E34 [10] = test: as above
E57 [11] = test: as above
FT3469 [12] = test: as above
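For phenotypic distance (Euclidean, principal components) from DMSO controls in this document: cell Painting imaging in 384-well plates, CellProfiler features reduced to at least 20 principal components, Euclidean distance versus same-plate DMSO vehicle wells (0.1% v/v), median over six images per well.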
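For surviving fraction (nuclei count normalised to DMSO) in this document: nuclei counted by high-content imaging of Hoechst-stained cells in laminin-coated 384-well plates, relative to 0.1% DMSO vehicle wells, with staurosporine as cell-death control.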

CCn1c(-c2nonc2N)nc2cnc(Oc3cccc(NC(=O)c4ccc(OCCN5CCOCC5)cc4)c3)cc21
Details	phenotypic distance	surviving fraction
E13 [1], 4.1 nM	–	0.992
E13 [1], 12.3 nM	–	0.995
E13 [1], 37 nM	–	0.9924
E13 [1], 111.1 nM	–	1.0033
E13 [1], 333.3 nM	–	1.03
E13 [1], 1000 nM	–	0.729
E13 [1], 3000 nM	–	0.633
E13 [7], 4.1 nM	2.07	–
E13 [7], 12.3 nM	2.22	–
E13 [7], 37 nM	2.86	–
E13 [7], 111.1 nM	2.12	–
E13 [7], 333.3 nM	2.126	–
E13 [7], 1000 nM	2.51	–
E13 [7], 3000 nM	3.08	–
E21 [2], 4.1 nM	–	0.933
E21 [2], 12.3 nM	–	0.948
E21 [2], 37 nM	–	0.974
E21 [2], 111.1 nM	–	0.925
E21 [2], 333.3 nM	–	0.898
E21 [2], 1000 nM	–	0.613
E21 [2], 3000 nM	–	0.448
E21 [8], 4.1 nM	1.88	–
E21 [8], 12.3 nM	2.27	–
E21 [8], 37 nM	2.12	–
E21 [8], 111.1 nM	2.01	–
E21 [8], 333.3 nM	1.94	–
E21 [8], 1000 nM	2.16	–
E21 [8], 3000 nM	2.66	–
E28 [3], 4.1 nM	–	0.9684
E28 [3], 12.3 nM	–	0.977
E28 [3], 37 nM	–	1.02
E28 [3], 111.1 nM	–	0.996
E28 [3], 333.3 nM	–	0.909
E28 [3], 1000 nM	–	0.619
E28 [3], 3000 nM	–	0.5398
E28 [9], 4.1 nM	2.14	–
E28 [9], 12.3 nM	2.12	–
E28 [9], 37 nM	2.16	–
E28 [9], 111.1 nM	2.28	–
E28 [9], 333.3 nM	2.41	–
E28 [9], 1000 nM	3.356	–
E28 [9], 3000 nM	3.1	–
E34 [4], 4.1 nM	–	1.12
E34 [4], 12.3 nM	–	1.14
E34 [4], 37 nM	–	1.176
E34 [4], 111.1 nM	–	0.989
E34 [4], 333.3 nM	–	1.02
E34 [4], 1000 nM	–	0.887
E34 [4], 3000 nM	–	0.746
E34 [10], 4.1 nM	1.73	–
E34 [10], 12.3 nM	1.69	–
E34 [10], 37 nM	2.04	–
E34 [10], 111.1 nM	1.79	–
E34 [10], 333.3 nM	1.73	–
E34 [10], 1000 nM	1.67	–
E34 [10], 3000 nM	2.39	–
E57 [5], 4.1 nM	–	1.06
E57 [5], 12.3 nM	–	1.01
E57 [5], 37 nM	–	1.01
E57 [5], 111.1 nM	–	0.996
E57 [5], 333.3 nM	–	0.86
E57 [5], 1000 nM	–	0.645
E57 [5], 3000 nM	–	0.486
E57 [11], 4.1 nM	0.962	–
E57 [11], 12.3 nM	1.68	–
E57 [11], 37 nM	0.775	–
E57 [11], 111.1 nM	0.817	–
E57 [11], 333.3 nM	1.73	–
E57 [11], 1000 nM	2.26	–
E57 [11], 3000 nM	3.68	–
FT3469 [6], 4.1 nM	–	1.18
FT3469 [6], 12.3 nM	–	1.18
FT3469 [6], 37 nM	–	1.12
FT3469 [6], 111.1 nM	–	1.055
FT3469 [6], 333.3 nM	–	1.06
FT3469 [6], 1000 nM	–	0.911
FT3469 [6], 3000 nM	–	0.766
FT3469 [12], 4.1 nM	2.61	–
FT3469 [12], 12.3 nM	1.73	–
FT3469 [12], 37 nM	1.75	–
FT3469 [12], 111.1 nM	1.587	–
FT3469 [12], 333.3 nM	1.48	–
FT3469 [12], 1000 nM	1.9	–
FT3469 [12], 3000 nM	3.17	–

CCn1cc(-c2ccnc3[nH]c(-c4cccc(CN(C)C)c4)cc23)c(-c2ccc(NC(=O)N(C)C)cc2)n1
Details	phenotypic distance	surviving fraction
E13 [1], 4.1 nM	–	0.468
E13 [1], 12.3 nM	–	0.437
E13 [1], 37 nM	–	0.458
E13 [1], 111.1 nM	–	0.46
E13 [1], 333.3 nM	–	0.49
E13 [1], 1000 nM	–	0.456
E13 [1], 3000 nM	–	0.439
E13 [7], 4.1 nM	4.52	–
E13 [7], 12.3 nM	4.8	–
E13 [7], 37 nM	4.56	–
E13 [7], 111.1 nM	5.0354	–
E13 [7], 333.3 nM	4.64	–
E13 [7], 1000 nM	4.84	–
E13 [7], 3000 nM	3.74	–
E21 [2], 4.1 nM	–	0.418
E21 [2], 12.3 nM	–	0.428
E21 [2], 37 nM	–	0.442
E21 [2], 111.1 nM	–	0.449
E21 [2], 333.3 nM	–	0.359
E21 [2], 1000 nM	–	0.4316
E21 [2], 3000 nM	–	0.314
E21 [8], 4.1 nM	4.9	–
E21 [8], 12.3 nM	5.1	–
E21 [8], 37 nM	5.06	–
E21 [8], 111.1 nM	5.32	–
E21 [8], 333.3 nM	5.21	–
E21 [8], 1000 nM	4.91	–
E21 [8], 3000 nM	5.07	–
E28 [3], 4.1 nM	–	0.639
E28 [3], 12.3 nM	–	0.603
E28 [3], 37 nM	–	0.542
E28 [3], 111.1 nM	–	0.5559
E28 [3], 333.3 nM	–	0.549
E28 [3], 1000 nM	–	0.53
E28 [3], 3000 nM	–	0.397
E28 [9], 4.1 nM	2.81	–
E28 [9], 12.3 nM	2.81	–
E28 [9], 37 nM	2.55	–
E28 [9], 111.1 nM	2.69	–
E28 [9], 333.3 nM	2.57	–
E28 [9], 1000 nM	2.83	–
E28 [9], 3000 nM	2.95	–
E34 [4], 4.1 nM	–	0.664
E34 [4], 12.3 nM	–	0.622
E34 [4], 37 nM	–	0.787
E34 [4], 111.1 nM	–	0.815
E34 [4], 333.3 nM	–	0.842
E34 [4], 1000 nM	–	0.8037
E34 [4], 3000 nM	–	0.673
E34 [10], 4.1 nM	2.75	–
E34 [10], 12.3 nM	2.68	–
E34 [10], 37 nM	2.46	–
E34 [10], 111.1 nM	2.4	–
E34 [10], 333.3 nM	2.43	–
E34 [10], 1000 nM	2.62	–
E34 [10], 3000 nM	1.93	–
E57 [5], 4.1 nM	–	0.385
E57 [5], 12.3 nM	–	0.338
E57 [5], 37 nM	–	0.287
E57 [5], 111.1 nM	–	0.325
E57 [5], 333.3 nM	–	0.306
E57 [5], 1000 nM	–	0.314
E57 [5], 3000 nM	–	0.221
E57 [11], 4.1 nM	4.79	–
E57 [11], 12.3 nM	4.9	–
E57 [11], 37 nM	6.03	–
E57 [11], 111.1 nM	5.9	–
E57 [11], 333.3 nM	6.027	–
E57 [11], 1000 nM	5.9	–
E57 [11], 3000 nM	5.4	–
FT3469 [6], 4.1 nM	–	0.759
FT3469 [6], 12.3 nM	–	0.76
FT3469 [6], 37 nM	–	0.788
FT3469 [6], 111.1 nM	–	0.844
FT3469 [6], 333.3 nM	–	0.708
FT3469 [6], 1000 nM	–	0.729
FT3469 [6], 3000 nM	–	0.591
FT3469 [12], 4.1 nM	1.96	–
FT3469 [12], 12.3 nM	2.32	–
FT3469 [12], 37 nM	2	–
FT3469 [12], 111.1 nM	2.07	–
FT3469 [12], 333.3 nM	2.13	–
FT3469 [12], 1000 nM	2.98	–
FT3469 [12], 3000 nM	2.08	–

C[C@H](NC(=O)[C@@H](O)c1cc(F)cc(F)c1)C(=O)N[C@@H]1C(=O)N(C)c2ccccc2-c2ccccc21
Details	phenotypic distance	surviving fraction
E13 [1], 4.1 nM	–	1.02
E13 [1], 12.3 nM	–	1.075
E13 [1], 37 nM	–	1.02
E13 [1], 111.1 nM	–	1.03
E13 [1], 333.3 nM	–	1.08
E13 [1], 1000 nM	–	1.07
E13 [1], 3000 nM	–	0.995
E13 [7], 4.1 nM	0.77	–
E13 [7], 12.3 nM	0.711	–
E13 [7], 37 nM	0.622	–
E13 [7], 111.1 nM	0.7795	–
E13 [7], 333.3 nM	0.785	–
E13 [7], 1000 nM	0.723	–
E13 [7], 3000 nM	0.862	–
E21 [2], 4.1 nM	–	0.89
E21 [2], 12.3 nM	–	0.9941
E21 [2], 37 nM	–	0.938
E21 [2], 111.1 nM	–	0.902
E21 [2], 333.3 nM	–	0.872
E21 [2], 1000 nM	–	0.883
E21 [2], 3000 nM	–	0.898
E21 [8], 4.1 nM	0.769	–
E21 [8], 12.3 nM	2.05	–
E21 [8], 37 nM	1.5	–
E21 [8], 111.1 nM	0.896	–
E21 [8], 333.3 nM	3.99	–
E21 [8], 1000 nM	1.02	–
E21 [8], 3000 nM	1.01	–
E28 [3], 4.1 nM	–	0.852
E28 [3], 12.3 nM	–	0.866
E28 [3], 37 nM	–	0.942
E28 [3], 111.1 nM	–	0.918
E28 [3], 333.3 nM	–	0.925
E28 [3], 1000 nM	–	0.835
E28 [3], 3000 nM	–	0.891
E28 [9], 4.1 nM	0.845	–
E28 [9], 12.3 nM	0.88	–
E28 [9], 37 nM	0.919	–
E28 [9], 111.1 nM	0.756	–
E28 [9], 333.3 nM	0.96	–
E28 [9], 1000 nM	1.03	–
E28 [9], 3000 nM	1.13	–
E34 [4], 4.1 nM	–	0.841
E34 [4], 12.3 nM	–	0.811
E34 [4], 37 nM	–	0.801
E34 [4], 111.1 nM	–	0.907
E34 [4], 333.3 nM	–	0.862
E34 [4], 1000 nM	–	0.775
E34 [4], 3000 nM	–	0.875
E34 [10], 4.1 nM	1.26	–
E34 [10], 12.3 nM	0.926	–
E34 [10], 37 nM	1.15	–
E34 [10], 111.1 nM	1.04	–
E34 [10], 333.3 nM	1.01	–
E34 [10], 1000 nM	1.24	–
E34 [10], 3000 nM	1.49	–
E57 [5], 4.1 nM	–	0.906
E57 [5], 12.3 nM	–	0.947
E57 [5], 37 nM	–	0.939
E57 [5], 111.1 nM	–	0.922
E57 [5], 333.3 nM	–	0.9779
E57 [5], 1000 nM	–	0.943
E57 [5], 3000 nM	–	0.931
E57 [11], 4.1 nM	1.25	–
E57 [11], 12.3 nM	1.21	–
E57 [11], 37 nM	1.87	–
E57 [11], 111.1 nM	1.2	–
E57 [11], 333.3 nM	1.284	–
E57 [11], 1000 nM	1.34	–
E57 [11], 3000 nM	1.43	–
FT3469 [6], 4.1 nM	–	0.89
FT3469 [6], 12.3 nM	–	0.882
FT3469 [6], 37 nM	–	0.89
FT3469 [6], 111.1 nM	–	0.906
FT3469 [6], 333.3 nM	–	0.896
FT3469 [6], 1000 nM	–	0.875
FT3469 [6], 3000 nM	–	0.828
FT3469 [12], 4.1 nM	1.01	–
FT3469 [12], 12.3 nM	0.677	–
FT3469 [12], 37 nM	0.997	–
FT3469 [12], 111.1 nM	0.721	–
FT3469 [12], 333.3 nM	1.08	–
FT3469 [12], 1000 nM	0.977	–
FT3469 [12], 3000 nM	0.991	–
